Results published in patent publication US20240124442A1, “TRICYCLIC-AMIDO-BICYCLIC PRMT5 INHIBITORS” (AMGEN INC., priority 2021, published 2024).

How the values were obtained:
HCT116 WT cells = assay: HCT116 WT (parent) cell line proliferation / cell viability (CellTiter-Glo, 6 days); type: cell-based; conditions: Homo sapiens, HCT-116, 144 h, 6 days treatment
Outline: (§1)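 Anti-proliferative IC50s were derived from CellTiter-Glo signal in HCT116 parent and MTAP-null cells after six days on compound. Serial dilutions reached top concentrations of 1, 10 or 50 μM, with DMSO-only wells as control.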

HCT116 MTAP null cells = assay: HCT116 MTAP null cell line proliferation / cell viability (CellTiter-Glo, 6 days); type: cell-based; conditions: 144 h; HCT116 MTAP null cells, 6 days treatment, CellTiter-Glo cell viability; read-out: HCT-116 MTAP null IC50
Outline: as §1

Row | IC50 (HCT116 WT cells) | IC50 (HCT116 MTAP null cells) | Compound
1 | 43 nM | 5 nM | CCN(C(=O)c1cc2c(cc1F)nc(N)c1cnn(C)c12)[C@@H]1COCc2nc(C(F)(F)F)ccc21 [Example 508, 4-amino-N-ethyl-7-fluoro-1-methyl-N-((5S)-2-(trifluoromethyl)-5,8-dihydro-6H-pyrano[3,4-b]pyridin-5-yl)-1H-pyrazolo[4,3-c]quinoline-8-carboxamide]
2 | 8110 nM | 107 nM | CN(C(=O)c1ccc2nc(N)c3c(cnn3C)c2c1)[C@@H]1COCc2cc(C#N)ccc21 [Example 509, 4-amino-N-((4S)-7-cyano-3,4-dihydro-1H-2-benzopyran-4-yl)-N,3-dimethyl-3H-pyrazolo[3,4-c]quinoline-8-carboxamide]
3 | 4590 nM | 48 nM | CN(C(=O)c1ccc2nc(N)c3c(cnn3C)c2c1)[C@@H]1COCc2cc(C(F)(F)F)ccc21 [Example 510, 4-amino-N,3-dimethyl-N-((4S)-7-(trifluoromethyl)-3,4-dihydro-1H-2-benzopyran-4-yl)-3H-pyrazolo[3,4-c]quinoline-8-carboxamide]
4 | 17400 nM | 374 nM | CN(C(=O)c1ccc2nc(N)c3c(cnn3C)c2c1)[C@@H]1COCc2cc(C(F)(F)F)ncc21 [Example 511, 4-amino-N,3-dimethyl-N-((4S)-7-(trifluoromethyl)-3,4-dihydro-1H-pyrano[4,3-c]pyridin-4-yl)-3H-pyrazolo[3,4-c]quinoline-8-carboxamide]
5 | 11100 nM | 123 nM | CN(C(=O)c1ccc2nc(N)c3c(cnn3C)c2c1)[C@@H]1COCc2nc(C(F)(F)F)ccc21 [Example 512, 4-amino-N,3-dimethyl-N-((5S)-2-(trifluoromethyl)-5,8-dihydro-6H-pyrano[3,4-b]pyridin-5-yl)-3H-pyrazolo[3,4-c]quinoline-8-carboxamide]
6 | 10200 nM | 168 nM | COc1ccc2c(n1)COC[C@H]2N(C)C(=O)c1cc2c(cc1F)nc(N)c1c2cnn1C [Example 513, 4-amino-7-fluoro-N-((5S)-2-methoxy-5,8-dihydro-6H-pyrano[3,4-b]pyridin-5-yl)-N,3-dimethyl-3H-pyrazolo[3,4-c]quinoline-8-carboxamide]
7 | 1520 nM | 68 nM | CN(C(=O)c1cc2c(cc1F)nc(N)c1c2cnn1C)[C@@H]1COCc2cc(C(F)(F)F)ccc21 [Example 514, 4-amino-7-fluoro-N,3-dimethyl-N-((4S)-7-(trifluoromethyl)-3,4-dihydro-1H-2-benzopyran-4-yl)-3H-pyrazolo[3,4-c]quinoline-8-carboxamide]
8 | 3650 nM | 37 nM | CN(C(=O)c1cc2c(cc1F)nc(N)c1c2cnn1C)[C@@H]1COCc2nc(C(F)(F)F)ccc21 [Example 515, 4-amino-7-fluoro-N,3-dimethyl-N-((5S)-2-(trifluoromethyl)-5,8-dihydro-6H-pyrano[3,4-b]pyridin-5-yl)-3H-pyrazolo[3,4-c]quinoline-8-carboxamide]
9 | 6520 nM | 105 nM | Cn1ncc2c3cc(C(=O)N(C4CC4)[C@@H]4COCc5nc(C(F)(F)F)ccc54)c(F)cc3nc(N)c21 [Example 516, 4-amino-N-cyclopropyl-7-fluoro-3-methyl-N-((5S)-2-(trifluoromethyl)-5,8-dihydro-6H-pyrano[3,4-b]pyridin-5-yl)-3H-pyrazolo[3,4-c]quinoline-8-carboxamide]
10 | 342 nM | 18 nM | CC(C)CN(C(=O)c1cc2c(cc1F)nc(N)c1c2cnn1C)[C@@H]1COCc2nc(C(F)(F)F)ccc21 [Example 517, 4-amino-7-fluoro-3-methyl-N-(2-methylpropyl)-N-((5S)-2-(trifluoromethyl)-5,8-dihydro-6H-pyrano[3,4-b]pyridin-5-yl)-3H-pyrazolo[3,4-c]quinoline-8-carboxamide]
11 | 9330 nM | 965 nM | CC(C)CN(C(=O)c1cc2c(cc1F)nc(N)c1c2cnn1C)[C@H]1COCc2nc(C(F)(F)F)ccc21 [Example 518, 4-amino-7-fluoro-3-methyl-N-(2-methylpropyl)-N-((5R)-2-(trifluoromethyl)-5,8-dihydro-6H-pyrano[3,4-b]pyridin-5-yl)-3H-pyrazolo[3,4-c]quinoline-8-carboxamide]
12 | 1390 nM | 27 nM | CN(C(=O)c1cc2c(cc1Cl)nc(N)c1c2cnn1C)[C@@H]1COCc2nc(C(F)(F)F)ccc21 [Example 519, 4-amino-7-chloro-N,3-dimethyl-N-((5S)-2-(trifluoromethyl)-5,8-dihydro-6H-pyrano[3,4-b]pyridin-5-yl)-3H-pyrazolo[3,4-c]quinoline-8-carboxamide]
13 | 2420 nM | 25 nM | Cc1cc2nc(N)c3c(cnn3C)c2cc1C(=O)N(C)[C@@H]1COCc2nc(C(F)(F)F)ccc21 [Example 520, 4-amino-N,3,7-trimethyl-N-((5S)-2-(trifluoromethyl)-5,8-dihydro-6H-pyrano[3,4-b]pyridin-5-yl)-3H-pyrazolo[3,4-c]quinoline-8-carboxamide]
14 | 14100 nM | 168 nM | Cc1nn(C)c2c1c(N)nc1cnc(C(=O)N(C)[C@@H]3COCc4cc(C#N)ccc43)cc12 [Example 521, 4-amino-N-((4S)-7-cyano-3,4-dihydro-1H-2-benzopyran-4-yl)-N,1,3-trimethyl-1H-pyrazolo[4,3-c][1,7]naphthyridine-8-carboxamide]
15 | 1310 nM | 14 nM | CN(C(=O)c1ccc2nc(N)c3cnn(C)c3c2c1)[C@@H]1COc2cc(C3CC3)ccc21 [Example 615, 4-amino-N-((3S)-6-cyclopropyl-2,3-dihydro-1-benzofuran-3-yl)-N,1-dimethyl-1H-pyrazolo[4,3-c]quinoline-8-carboxamide]
16 | 3670 nM | 32 nM | CN(C(=O)c1ccc2nc(N)c3cnn(C)c3c2c1)[C@@H]1COc2cc(-c3ccn(C)c3)ccc21 [Example 616, 4-amino-N,1-dimethyl-N-((3S)-6-(1-methyl-1H-pyrrol-3-yl)-2,3-dihydro-1-benzofuran-3-yl)-1H-pyrazolo[4,3-c]quinoline-8-carboxamide]
17 | 1650 nM | 55 nM | CN(C(=O)c1ccc2nc(N)c3cnn(C)c3c2c1)[C@@H]1COc2cc(C3=CCCCC3)ccc21 [Example 617, 4-amino-N-((3S)-6-(1-cyclohexen-1-yl)-2,3-dihydro-1-benzofuran-3-yl)-N,1-dimethyl-1H-pyrazolo[4,3-c]quinoline-8-carboxamide]
18 | 786 nM | 10 nM | CN(C(=O)c1ccc2nc(N)c3cnn(C)c3c2c1)[C@@H]1COc2cc(C3=CCOCC3)ccc21 [Example 618, 4-amino-N-((3S)-6-(3,6-dihydro-2H-pyran-4-yl)-2,3-dihydro-1-benzofuran-3-yl)-N,1-dimethyl-1H-pyrazolo[4,3-c]quinoline-8-carboxamide]
19 | 649 nM | 17 nM | CN(C(=O)c1ccc2nc(N)c3cnn(C)c3c2c1)[C@@H]1COc2cc(C3=CCC(F)(F)CC3)ccc21 [Example 619, 4-amino-N-((3S)-6-(4,4-difluoro-1-cyclohexen-1-yl)-2,3-dihydro-1-benzofuran-3-yl)-N,1-dimethyl-1H-pyrazolo[4,3-c]quinoline-8-carboxamide]
